Laboratory results taken from publication PMC9133036 (Nature Communications, 2022).
Substitutions are numbered along the chain they refer to. pEC50: −log10 of the molar value. “And” between values parts separate entries of the source, which are not always exact repeats. Equal values may be shown once. Read-outs that look alike come from different tables or passages of the source.

How the values were obtained:
Assay type in all cases: cell-based
OX2R T111S = target: T1, OX2R T111S (Homo sapiens, UniProt O43614, T111S); assay: IP accumulation assay, OX2R T111S
T1 construct: FLAG; expressed in transfected cells; host or cells: HEK293
T1 sequence (O43614 1-444 T111S): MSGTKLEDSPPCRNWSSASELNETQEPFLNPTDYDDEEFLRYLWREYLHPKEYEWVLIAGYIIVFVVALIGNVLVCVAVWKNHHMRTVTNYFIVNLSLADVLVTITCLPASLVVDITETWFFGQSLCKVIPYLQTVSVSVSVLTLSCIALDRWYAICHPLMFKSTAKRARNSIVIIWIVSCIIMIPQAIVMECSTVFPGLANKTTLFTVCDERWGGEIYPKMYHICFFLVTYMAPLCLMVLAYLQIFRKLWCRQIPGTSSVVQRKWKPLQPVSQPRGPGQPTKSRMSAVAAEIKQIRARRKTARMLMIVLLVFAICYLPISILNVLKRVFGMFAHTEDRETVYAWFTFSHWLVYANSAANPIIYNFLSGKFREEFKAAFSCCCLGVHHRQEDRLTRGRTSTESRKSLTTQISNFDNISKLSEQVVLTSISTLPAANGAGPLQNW
Excerpt: (§1) The IP assay was adapted from a prior precedent. HEK293 cells were maintained in DMEM-high glucose (Millipore Sigma) supplemented with 5% fetal bovine serum (Corning) and penicillin-streptomycin (Millipore Sigma). Receptor constructs used were the full-length wild-type (or mutant) human OX1R and OX2R sequences cloned into pCDNA3. To enhance the Emax in the IP assay, a plasmid encoding full-length human Gαq subunit[66] was co-transfected into HEK293 cells with plasmids encoding orexin receptor constructs using Lipofectamine 3000 (Thermo Fisher). 24 h after transfection, the cells were plated on poly-D-lysine coated (Millipore Sigma) tissue culture-treated 96 well white plates with clear bottoms (Perkin Elmer) at 30,000 cells per well in Inositol-free DMEM (MP Biomedicals) supplemented with 5% fetal bovine serum, 4 mM L-glutamine (Millipore Sigma), penicillin-streptomycin, and about 5 uCi (5 ul) per ml myo-[2-3H] inositol (Perkin Elmer). The following day, the media was replaced with agonists that were diluted in HBSS (Millipore Sigma) containing 10 mM lithium chloride (Millipore Sigma) and incubated at 37 °C for 45 min. Then agonists were removed and cells were lysed on ice for 30 min with 10 mM formic acid (Millipore Sigma). 1.25 mg of poly-lysine coated YSI SPA beads (Perkin Elmer) was added to each well. The plates were mixed on an orbital shaker for 30 min. The plates were read on a MicroBeta scintillation counter (Perkin Elmer) the following day. IP accumulation assays on different constructs were performed in n ≥ 3 independent experiments (each done in duplicate), where n is shown in Supplementary Table 2.

OX2R F227A = target: T2, OX2R F227A (Homo sapiens, UniProt O43614, F227A); assay: β-arrestin PathHunter assay, OX2R F227A; conditions: for beta-arrestin recruitment fold change: F227A, listed as OxB
T2 construct: expressed in transfected cells; host or cells: CHO-K1 stably expressing EA β-arrestin2
T2 sequence (O43614 1-444 F227A): T1 sequence (O43614 1-444 T111S) with S111T, F227A
Method: β-Arrestin recruitment activity was measured by using the PathHunter system (DiscoveRX) according to the manufacturer’s instruction. Receptor constructs used were the full-length wild-type (or mutant) human OX2R sequences cloned into pCMV-ProLink (DiscoveRX). CHO-K1 cells stably expressing EA β-arrestin2 (DiscoveRX) were plated on 384 well white plates (Thermo Fisher) at 4000 cells/well in HamF12 (Wako Pure Chemical Industries) supplemented with 10% fetal bovine serum (Corning) and penicillin-streptomycin (Wako Pure Chemical Industries) and incubated overnight at 37 °C under 5% CO2. Cells were transfected with plasmids encoding wild type or each mutant ProLink-tagged human OX2R using FuGENE HD (Promega). […] Detection reagent was added and incubated for 1 h at room temperature. Luminescent signal was detected using an EnVision plate reader (PerkinElmer). β-arrestin assays on different constructs were performed in two or three independent experiments (each done in quadruplicate). Dose response curves (shown in Supplementary Fig. 8) were fitted to the three-parameter model ‘log(agonist) vs response’ in GraphPad Prism to determine pEC50 values.

OX1R S103T = target: T3, OX1R S103T (Homo sapiens, UniProt O43613, S103T); assay: IP accumulation assay, OX1R S103T
T3 construct: FLAG; expressed in transfected cells; host or cells: HEK293
T3 sequence (O43613 1-425 S103T): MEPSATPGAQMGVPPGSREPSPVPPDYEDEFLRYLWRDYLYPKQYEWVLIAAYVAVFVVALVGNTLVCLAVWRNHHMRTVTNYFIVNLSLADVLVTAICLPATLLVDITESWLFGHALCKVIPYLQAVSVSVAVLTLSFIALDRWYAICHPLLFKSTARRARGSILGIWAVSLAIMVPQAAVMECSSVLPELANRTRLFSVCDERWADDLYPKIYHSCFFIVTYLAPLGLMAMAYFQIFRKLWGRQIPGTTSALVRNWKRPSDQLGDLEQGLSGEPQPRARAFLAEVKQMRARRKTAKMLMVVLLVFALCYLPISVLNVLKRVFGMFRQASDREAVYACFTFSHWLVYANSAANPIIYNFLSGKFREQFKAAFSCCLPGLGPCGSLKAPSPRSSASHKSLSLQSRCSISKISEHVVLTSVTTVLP
Excerpt: as §1

Molecule: COC(=O)N1CCC[C@H](NS(C)(=O)=O)[C@@H]1CO[C@H]1CC[C@@H](c2ccccc2)CC1 [TAK-925, methyl (2R,3S)−3-[(methylsulfonyl)amino]−2-{[(cis−4-phenylcyclohexyl)oxy]methyl}piperidine-1-carboxylate]
- pEC50 (OX2R T111S; IP accumulation): 6.64
- % IP accumulation (OX2R T111S; TAK-925 conc (log, M) -4.00, normalized to OX2R WT Emax): 70.98% and 87.26% and 72.84%
- % IP accumulation (OX2R T111S; TAK-925 conc (log, M) -4.48): 81.25% and 84.62% and 46.26%
- % IP accumulation (OX2R T111S; TAK-925 conc (log, M) -4.95): 89.34% and 80.76% and 67.67%
- % IP accumulation (OX2R T111S; TAK-925 conc (log, M) -5.43): 71.72% and 74.73% and 72.02%
- % IP accumulation (OX2R T111S; TAK-925 conc (log, M) -5.91): 64.42% and 69.82% and 64.34%
- % IP accumulation (OX2R T111S; TAK-925 conc (log, M) -6.39): 51.66% and 41.45% and 43.47%
- % IP accumulation (OX2R T111S; TAK-925 conc (log, M) -6.86): 34.40% and 35.79% and 28.55%
- % IP accumulation (OX2R T111S; TAK-925 conc (log, M) -7.34): 18.97% and 17.10% and 14.95%
- % IP accumulation (OX2R T111S; TAK-925 conc (log, M) -7.82): 8.44% and 12.15% and 9.41%
- % IP accumulation (OX2R T111S; TAK-925 conc (log, M) -8.29): 4.76% and 0.00% and 2.26%
- % IP accumulation (OX2R T111S; TAK-925 conc (log, M) -8.77): 0.00% and 8.93%
- Emax (OX2R T111S; relative to OX2R WT/TAK-925): 76
- pEC50 (OX2R F227A; β-arrestin recruitment, read-out: EC50): < 4.52
- EC50 (OX2R F227A; β-arrestin recruitment, read-out: pEC50 (converted)): > 30.2 µM
- activation at 100 µM (OX1R S103T; 0.75 h, TAK-925 conc (log, M) -4.00): 122%
- activation at 11.2 µM (OX1R S103T; 0.75 h, TAK-925 conc (log, M) -4.95): 88.4%
- activation at 3.72 µM (OX1R S103T; 0.75 h, TAK-925 conc (log, M) -5.43): 57.1%
- activation at 1.23 µM (OX1R S103T; 0.75 h, TAK-925 conc (log, M) -5.91): 21.9%
- activation at 0.0457 µM (OX1R S103T; 0.75 h, TAK-925 conc (log, M) -7.34): 9.04%
- pEC50 (OX1R S103T; IP accumulation): 5.28
- Emax (OX1R S103T; relative to OX1R S103T/A127T/TAK-925): 130

Molecule: orexin B
- beta-arrestin recruitment fold change (OX2R F227A; OxB concentration -6.00 (log, M)): 9.362 fold and 8.115 fold and 7.068 fold and 6.668 fold
- beta-arrestin recruitment fold change (OX2R F227A; OxB concentration -6.52 (log, M)): 5.797 fold and 5.207 fold and 4.992 fold and 3.983 fold
- beta-arrestin recruitment fold change (OX2R F227A; OxB concentration -7.00 (log, M)): 2.141 fold and 2.264 fold and 1.690 fold and 2.115 fold
- beta-arrestin recruitment fold change (OX2R F227A; OxB concentration -7.52 (log, M)): 0.997 fold and 1.239 fold and 0.840 fold and 1.032 fold
- beta-arrestin recruitment fold change (OX2R F227A; OxB concentration -8.00 (log, M)): 0.797 fold and 0.852 fold and 0.855 fold and 0.772 fold
- beta-arrestin recruitment fold change (OX2R F227A; OxB concentration -8.52 (log, M)): 0.707 fold and 0.923 fold and 0.738 fold and 0.787 fold
- beta-arrestin recruitment fold change (OX2R F227A; OxB concentration -9.00 (log, M)): 0.670 fold and 0.812 fold and 0.735 fold and 0.836 fold
- beta-arrestin recruitment fold change (OX2R F227A; OxB concentration -10.00 (log, M)): 0.813 fold and 0.979 fold and 0.709 fold and 0.989 fold
